Biological target: T1, human FASN (Homo sapiens, UniProt P49327)
T1 construct: was purified from SKBR3 cells using procedures modified from those in Jayakumar et al; endogenous in cells; host or cells: SKBR3 human breast cancer cells (ATCC); Endogenous enzyme purified by ammonium sulfate precipitation and a mono Q column
Assay: FASN Scintillation Proximity Flashplate Assay
Format: biochemical
Settings: human FASN purified from SKBR3 cells; unstarred symbols
Procedure: Human FASN protein (SEQ ID NO. 1) was purified from SKBR3 cells using procedures modified from those in Jayakumar et al. PNAS 1995, 92:8695-8699. SKBR3 cells were obtained from ATCC and grown in DMEM high glucose medium supplemented with 10% FBS, 1 μg/mL bovine pancreas insulin, 100 U/mL penicillin and 100 µg/mL streptomycin. The confluent cells were trypsinized and washed three times with PBS buffer before frozen in liquid N2 and stored at −80° C. Frozen cells were thawed on ice and resuspended in lysis buffer (25 mM Tris-HCl, pH 7.0, 15 mM NaCl, 1 mM EDTA, and 1 mM DTT) with protease inhibitors. The cells were lysed by sonication, and the cell debris was removed by centrifugation at 20,000 rpm for 30 min. To the supernatant, neutralized saturated ammonium sulfate solution was added to a final concentration of 35%. The solution was left on ice for 1 hr, and the precipitated proteins were harvested by centrifugation at 20,000 rpm for 30 min. The proteins were redissolved in lysis buffer without NaCl and loaded on a mono Q column. Bound proteins were eluted with a linear gradient of NaCl in lysis buffer. Each fraction was analyzed by SDS-PAGE and FASN NADPH consumption assay. The fractions containing FASN were pooled and concentrated to 2-3 mg/mL. Glycerol was added to 20%, and the protein was frozen in liquid N2 and stored at −80° C.
Acetyl-coenzyme A, malonyl-coenzyme A, NADPH, bovine gamma globulin, and ORLISTAT were purchased from Sigma (St. Louis, Mo.). Tris(2-carboxyethyl) phosphine hydrochloride (TCEP) was purchased from Pierce Biotechnologies (Rockford, Ill.). [^3H]-acetyl-coenzyme A was purchased from Moravek Biochemicals (Brea, CA). FlashPlate™ PLUS phospholipid 96-well scintillant coated microplates were purchased from Perkin Elmer Life and Analytical Sciences (Shelton, CT). The method of the FASN Scintillation Proximity FlashPlate assay is similar to that described in Weiss and Glickman Assay Drug Dev Technol 2003, 1:161-6. In a 96-well polypropylene microplate, a dilution series (typical concentrations 60 nM-1.0 mM) of test compounds were prepared in DMSO followed by a 20-fold dilution into FASN assay buffer (50 mM potassium phosphate, pH 7.0, 1.0 mM EDTA, 0.01% NP-40), of which 5.0 μL each was transferred to a FlashPlate® PLUS 96-well plate and mixed with 35 μL FASN assay buffer plus 0.5 mg/mL bovine gamma globulin and 1 mM TCEP. FASN protein (10 μL, 10 nM) was added per well, and the microplate was incubated at 37° C. for 30 min. 10 μL of 20 mM NADPH was added, and the reaction was initiated by addition of […] substrate mixture to final concentrations of 1 nM FASN, 100 μM acetyl-coenzyme A, 6 μCi [^3H]-acetyl-coenzyme A, 300 μM malonyl-coenzyme A, 2 mM NADPH, 0.5 mg/mL bovine gamma globulin, and 1 mM TCEP in a volume of 100 μL per well. Assay plates were incubated for 2 hr at 37° C. and the reaction was stopped with 2 μL of 2.5 mM stock solution of ORLISTAT in DMSO to ˜50 μM. The plates were read in a Wallac 1450 Microbeta Plus liquid scintillation counter (Perkin Elmer, Waltham, Mass.), and counts per minute (CPM) were collected over 2 min. Each inhibitor well CPM was compared to the maximum FASN enzyme activity (Max) CPM and the background (Min) CPM, as measured by omission of FASN enzyme in the background well. % Inhibition values were calculated, and curves were fitted by a four-parameter logistic function to yield IC50 values:
Compounds were assayed as inhibitors of human FASN using the above-described FASN Scintillation Proximity Flashplate Assay (IC50; nM) or FASN NADPH Consumption Assay (*) (IC50; nM). The corresponding activity of the isolated compound is also provided along with the measured mass (ES^+).

T1 sequence (P49327 whole entry): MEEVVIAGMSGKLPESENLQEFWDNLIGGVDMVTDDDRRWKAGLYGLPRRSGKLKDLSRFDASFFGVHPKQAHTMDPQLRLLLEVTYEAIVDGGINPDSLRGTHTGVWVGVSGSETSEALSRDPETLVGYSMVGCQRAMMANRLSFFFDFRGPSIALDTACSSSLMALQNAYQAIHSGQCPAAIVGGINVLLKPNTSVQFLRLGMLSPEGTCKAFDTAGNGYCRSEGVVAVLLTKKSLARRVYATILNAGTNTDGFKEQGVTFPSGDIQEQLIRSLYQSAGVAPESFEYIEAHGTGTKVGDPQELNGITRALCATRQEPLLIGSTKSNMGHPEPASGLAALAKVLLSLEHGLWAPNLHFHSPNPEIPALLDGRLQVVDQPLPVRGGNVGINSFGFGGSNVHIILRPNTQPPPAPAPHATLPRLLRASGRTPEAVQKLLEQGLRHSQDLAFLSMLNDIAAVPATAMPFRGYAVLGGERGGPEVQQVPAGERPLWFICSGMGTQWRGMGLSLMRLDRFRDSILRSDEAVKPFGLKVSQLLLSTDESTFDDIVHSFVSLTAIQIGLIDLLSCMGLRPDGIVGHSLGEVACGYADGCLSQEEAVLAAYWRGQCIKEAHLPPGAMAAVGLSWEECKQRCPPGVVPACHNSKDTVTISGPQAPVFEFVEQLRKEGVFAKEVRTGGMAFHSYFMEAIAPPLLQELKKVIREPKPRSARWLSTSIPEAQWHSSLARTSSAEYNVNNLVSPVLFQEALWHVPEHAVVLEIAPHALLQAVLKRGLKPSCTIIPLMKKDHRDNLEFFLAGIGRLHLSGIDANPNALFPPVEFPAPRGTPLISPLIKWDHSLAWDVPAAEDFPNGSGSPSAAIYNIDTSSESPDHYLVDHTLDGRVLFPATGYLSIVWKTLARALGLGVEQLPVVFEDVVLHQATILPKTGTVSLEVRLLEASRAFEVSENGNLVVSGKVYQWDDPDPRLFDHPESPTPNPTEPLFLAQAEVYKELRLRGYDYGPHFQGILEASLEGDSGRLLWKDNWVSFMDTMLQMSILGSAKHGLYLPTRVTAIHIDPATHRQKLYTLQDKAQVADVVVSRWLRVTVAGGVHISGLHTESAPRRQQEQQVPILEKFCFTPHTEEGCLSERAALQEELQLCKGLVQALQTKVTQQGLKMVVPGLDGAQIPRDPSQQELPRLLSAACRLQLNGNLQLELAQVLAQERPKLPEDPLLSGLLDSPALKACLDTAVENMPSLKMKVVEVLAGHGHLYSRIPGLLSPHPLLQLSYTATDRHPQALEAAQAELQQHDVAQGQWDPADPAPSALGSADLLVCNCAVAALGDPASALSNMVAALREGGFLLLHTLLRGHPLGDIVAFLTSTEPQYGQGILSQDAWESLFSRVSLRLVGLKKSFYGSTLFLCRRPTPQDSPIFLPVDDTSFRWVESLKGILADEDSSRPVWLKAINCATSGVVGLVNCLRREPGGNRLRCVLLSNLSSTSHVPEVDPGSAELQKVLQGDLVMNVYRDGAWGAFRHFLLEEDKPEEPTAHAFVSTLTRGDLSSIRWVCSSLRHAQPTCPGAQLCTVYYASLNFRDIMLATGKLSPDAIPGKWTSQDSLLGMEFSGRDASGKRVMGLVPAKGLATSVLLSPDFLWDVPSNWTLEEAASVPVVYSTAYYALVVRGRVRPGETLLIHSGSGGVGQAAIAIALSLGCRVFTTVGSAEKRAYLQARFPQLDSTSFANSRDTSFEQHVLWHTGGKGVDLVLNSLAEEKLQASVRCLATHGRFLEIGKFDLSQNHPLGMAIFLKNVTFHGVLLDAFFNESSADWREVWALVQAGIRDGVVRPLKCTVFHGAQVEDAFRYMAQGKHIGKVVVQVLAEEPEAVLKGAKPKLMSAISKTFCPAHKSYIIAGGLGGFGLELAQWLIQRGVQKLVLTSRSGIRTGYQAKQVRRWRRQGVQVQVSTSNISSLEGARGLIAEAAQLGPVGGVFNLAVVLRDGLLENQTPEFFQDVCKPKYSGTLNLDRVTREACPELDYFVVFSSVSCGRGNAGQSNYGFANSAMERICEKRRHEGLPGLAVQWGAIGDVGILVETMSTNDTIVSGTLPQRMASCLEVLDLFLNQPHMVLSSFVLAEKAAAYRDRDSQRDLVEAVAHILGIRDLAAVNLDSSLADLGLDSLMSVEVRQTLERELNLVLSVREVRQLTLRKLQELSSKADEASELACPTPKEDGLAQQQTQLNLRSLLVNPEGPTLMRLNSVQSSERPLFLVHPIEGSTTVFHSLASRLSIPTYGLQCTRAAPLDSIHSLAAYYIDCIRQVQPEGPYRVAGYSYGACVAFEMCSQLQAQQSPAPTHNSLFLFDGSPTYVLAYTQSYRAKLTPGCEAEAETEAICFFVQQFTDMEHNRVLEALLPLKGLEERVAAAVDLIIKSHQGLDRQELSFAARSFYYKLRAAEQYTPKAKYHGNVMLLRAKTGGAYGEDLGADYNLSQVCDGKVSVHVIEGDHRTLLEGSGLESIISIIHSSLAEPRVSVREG

COc1ccc(COC(=O)c2cc(N(C(=O)n3nnn(-c4cccc5nsnc45)c3=O)C3CCCCC3)ccc2OC)cc1 gave an IC50 of less than 15 nM.
For CC(C)N(C(=O)n1nnn(-c2c(F)cccc2F)c1=O)c1ccc(NC(=O)OC(C)(C)C)c(C(=O)OCc2ccccc2)c1, the IC50 was less than 15 nM.
CCN(C(=O)n1nnn(-c2c(F)cccc2OC)c1=O)c1cc(Oc2ccc(C(=O)O)cc2)ccc1C was tested, and the IC50 was 15 to 100 nM.
CCN(C(=O)n1nnn(-c2c(F)cccc2F)c1=O)c1ccc(NC(C)=O)cc1F was tested, and the IC50 was less than 15 nM.
In the case of CCN(C(=O)n1nnn(-c2c(F)cccc2C(=O)N2CCOCC2)c1=O)c1ccccc1Oc1ccccc1, the IC50 is reported as 200 to 5000 nM.
COc1ccc(C(=O)O)cc1N(C(=O)n1nnn(-c2c(F)cccc2F)c1=O)C(C)C gave an IC50 of less than 15 nM.
In the case of CC(C)N(C(=O)n1nnn(-c2c(F)cccc2F)c1=O)c1ccc(Cl)c(C(=O)OCc2ccccc2)c1, the IC50 is reported as less than 15 nM.
Nc1ccc(N(C(=O)n2nnn(-c3c(F)cccc3F)c2=O)C2CCCCC2)cc1C(=O)O showed an IC50 of less than 15 nM.
Molecule COc1cc(Oc2ccccc2)c(N(C(=O)n2nnn(-c3c(F)cccc3F)c2=O)C2CCCCC2)cc1C(=O)O has an IC50 of less than 15 nM.
In the case of COc1ccc(N(C(=O)n2nnn(-c3c(F)cccc3C(=O)N(C)C)c2=O)C(C)C)cc1C(=O)OCc1ccccc1, the IC50 is reported as less than 15 nM.
Molecule CCN(C(=O)n1nnn(-c2c(F)cccc2OC)c1=O)c1cc(C(=O)O)ccc1OCCc1ccccc1 has an IC50 of less than 15 nM.
In the case of CCN(C(=O)n1nnn(-c2c(F)cccc2F)c1=O)c1ccc(OC)c(C(=O)O)c1, the IC50 is reported as 15 to 100 nM.
COc1ccc(N(C(=O)n2nnn(-c3c(F)cccc3F)c2=O)C2CCCCC2)cc1C(=O)O gave an IC50 of less than 15 nM.
Molecule COc1cccc(F)c1-n1nnn(C(=O)N(c2ccccc2)C2CCCCC2)c1=O has an IC50 of 15 to 100 nM.
In the case of COc1ccc(C(=O)OCc2ccccc2)cc1N(C(=O)n1nnn(-c2c(F)cccc2OC)c1=O)C(C)C, the IC50 is reported as 15 to 100 nM.
With COc1ccc(C(=O)OCc2ccccc2)cc1N(C(=O)n1nnn(-c2c(F)cccc2OC(C)C)c1=O)C1CCCCC1 the IC50 was 15 to 100 nM.
COc1ccccc1-n1nnn(C(=O)N(c2ccc(Br)cc2)c2ccc(C(=O)O)cc2)c1=O gave an IC50 of less than 15 nM.
In the case of COc1ccc(N(C(=O)n2nnn(-c3ccccc3OC)c2=O)C(C)C)cc1C(=O)OCc1ccccc1, the IC50 is reported as less than 15 nM.
For CCOC(=O)c1cc(C)n(-c2ccc(N(C(=O)n3nnn(-c4c(F)cccc4F)c3=O)C3CCCCC3)cc2C(=O)OCc2ccccc2)n1, the IC50 was less than 15 nM.
Work on COc1cccc(F)c1-n1nnn(C(=O)N(c2cccc(C(=O)OCc3ccccc3)c2)C2CC2)c1=O yielded an IC50 of less than 15 nM.
In the case of CCCCOc1ccc(C(=O)O)cc1N(CC)C(=O)n1nnn(-c2c(F)cccc2OC)c1=O, the IC50 is reported as less than 15 nM.
With COc1cccc(F)c1-n1nnn(C(=O)N(c2ccccc2)C2CCCC2)c1=O the IC50 was less than 15 nM.
For COCCOc1ccc(N(C(=O)n2nnn(-c3c(F)cccc3F)c2=O)C2CCCCC2)cc1C(=O)O, the IC50 was less than 15 nM.
With O=C(O)c1ccc(N(C(=O)n2nnn(-c3c(F)cccc3F)c2=O)C2CCCCC2)cn1 the IC50 was less than 15 nM.
In the case of CCN(C(=O)n1nnn(-c2ccccc2OC)c1=O)c1ccc(C(=O)OCc2ccccc2)cc1, the IC50 is reported as 15 to 100 nM.
In the case of COc1cc(N(C(=O)n2nnn(-c3c(F)cccc3F)c2=O)C2CCCCC2)ccc1C(=O)O, the IC50 is reported as less than 15 nM.
CCCCOc1ccc(C(=O)O)cc1N(CC)C(=O)n1nnn(-c2c(F)cccc2F)c1=O gave an IC50 of less than 15 nM.
With CCN(C(=O)n1nnn(-c2c(F)cccc2F)c1=O)c1ccccc1Oc1ccccc1 the IC50 was less than 15 nM.
CN(C)N(C(=O)n1nnn(-c2c(F)cccc2F)c1=O)C1=CCCC1 showed an IC50 of 15 to 100 nM.
COCCOCOc1ccc(N(C(=O)n2nnn(-c3c(F)cccc3F)c2=O)C2CCCCC2)cc1C(=O)OCc1ccccc1 was tested, and the IC50 was less than 15 nM.
In the case of COc1ccc(C(=O)O)cc1N(C(=O)n1nnn(-c2c(F)cccc2OC)c1=O)C1CCCCC1, the IC50 is reported as less than 15 nM.
For COc1ccc(N(C(=O)n2nnn(-c3c(F)cccc3F)c2=O)C2CCCCC2)cc1C(N)=O, the IC50 was less than 15 nM.
In the case of COCCOc1ccc(N(C(=O)n2nnn(-c3c(F)cccc3OCCOC)c2=O)C2CCCCC2)cc1C(=O)O, the IC50 is reported as 15 to 100 nM.
For CCCN(C(=O)n1nnn(-c2ccccc2Cl)c1=O)C1CCCC1, the IC50 was 200 to 5000 nM.
Work on CN(C)N(C(=O)n1nnn(-c2ccccc2F)c1=O)C1=CCCC1 yielded an IC50 of 100 to 200 nM.
COc1ccc(N(C(=O)n2nnn(-c3ccccc3OC)c2=O)C(C)C)cc1C(=O)O gave an IC50 of 200 to 5000 nM.
CCN(C(=O)n1nnn(-c2ccccc2OC)c1=O)c1ccc(OC)cc1 showed an IC50 of 100 to 200 nM.
With CCN1CCN(c2ccc(N(C(=O)n3nnn(-c4c(F)cccc4F)c3=O)C3CCCCC3)cc2C(=O)O)CC1 the IC50 was 15 to 100 nM.
For O=C(O)c1cc(N(C(=O)n2nnn(-c3c(F)cccc3F)c2=O)C2CCCCC2)ccc1O, the IC50 was less than 15 nM.
In the case of O=C(NCc1ccccc1)c1cccc(N(C(=O)n2nnn(-c3c(F)cccc3F)c2=O)C2CCCCC2)c1, the IC50 is reported as less than 15 nM.
For CC(C)(C)OC(=O)N1CCN(c2ccc(N(C(=O)n3nnn(-c4c(F)cccc4F)c3=O)C3CCCCC3)cc2C(=O)OCc2ccccc2)CC1, the IC50 was less than 15 nM.
With CCN(C(=O)n1nnn(-c2ccccc2Cl)c1=O)C1CCCC1 the IC50 was 200 to 5000 nM.
CCN(C(=O)n1nnn(-c2c(F)cccc2OC)c1=O)c1ccccc1Oc1ccccc1 gave an IC50 of 15 to 100 nM.
Molecule COc1cc(Oc2ccccc2)c(N(C(=O)n2nnn(-c3c(F)cccc3F)c2=O)C2CCCC2)cc1C(=O)O has an IC50 of less than 15 nM.

Reference: patent US9346769B2, “Tetrazolones as inhibitors of fatty acid synthase” (Infinity Pharmaceuticals, Inc., priority 2010, dated 2016)
